From patent publication US11040028B2, “Penicinotam derivative, preparation method and use thereof” (OCEAN UNIVERSITY OF CHINA, priority 2017, dated 2021)

Columns and labels:
Assay type in all cases: cell-based
BHK-21 cells = test: Anti-fibrosis activity test: inhibition of BHK-21 cell proliferation (CCK-8); details: Mesocricetus auratus, BHK-21, 48 h
How it was run: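 BHK-21 cells seeded at 2×10^4 cells/mL, allowed to adhere 24 h at 37° C, 5% CO2, then exposed to compounds at graded concentrations in triplicate for 48 h. CCK-8 added for 2 h and absorbance read at 450 nm; inhibition rate taken as (1−Ai/Ao)×100% and IC50 fitted.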

[1] = system: human fibrosarcoma cells HT-1080; test: Anti-fibrosis activity test: inhibition of proliferation of human fibrosarcoma cells HT-1080 (CCK-8); details: Homo sapiens, HT-1080, 48 h
How it was run: (§1)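 IC50 values derive from CCK-8 absorbance (450 nm, 2 h reagent incubation) measured after a 48 h exposure to test compounds. Before dosing, cells plated at 2×10^4 cells/mL had attached for 24 h under 5% CO2 at 37° C; triplicate wells per concentration.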

[2] = system: human embryonic lung fibroblast IMR-90; test: Anti-fibrosis activity test: inhibition of proliferation of human embryonic lung fibroblast IMR-90 (CCK-8)
How it was run: as §1

NF-κB = test: Immunological activity test: inhibition of NF-κB activity; details: initial concentration of 30 μM; a/b isomers given as first/second symbol; read-out: IC50 (μM), inhibitory activity against NF-κB
How it was run: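 Initial screen at 30 μM; parthenolide positive control. IC50s derived from follow-up analysis.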

[3] = system: human hepatic stellate cells LX-2; test: Anti-fibrosis activity test: inhibition of proliferation of human hepatic stellate cells LX-2 (CCK-8); details: Homo sapiens, 48 h
How it was run: as §1

[4] = system: cardiac fibroblast RAT-iCell-C002; test: Anti-fibrosis activity test: inhibition of proliferation of cardiac fibroblast RAT-iCell-C002 (CCK-8); details: Cardiac fibroblast, 48 h
How it was run: as §1

[5] = system: mouse macrophages (RAW264.7); test: Lipopolysaccharide-induced NO secretion in macrophages (Griess); details: Mus musculus, RAW264.7, 24 h, RAW264.7, LPS 1 μg/ml, a/b isomers given as first/second symbol, read-out: IC50 (μM), inhibition of lipopolysaccharide-induced NO secretion in macrophages
How it was run: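 Percent inhibition of NO release was measured by Griess absorbance at 548 nm in supernatants. Cells were mouse RAW264.7 macrophages in 10% FBS DMEM, treated with graded compound concentrations and activated by LPS (1 μg/ml) for 24 h.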

[6] = system: human lung fibroblasts HFL1; test: Anti-fibrosis activity test: inhibition of proliferation of human lung fibroblasts HFL1 (CCK-8); details: Homo sapiens, HFL1, 48 h
How it was run: as §1

[7] = system: human dermal fibroblasts CCC-ESF-1; test: Anti-fibrosis activity test: inhibition of proliferation of human dermal fibroblasts CCC-ESF-1 (CCK-8); details: Fibroblast
How it was run: as §1

[8] = CCK-8, 48 hours after administration
[9] = human fibrosarcoma cells HT-1080, CCK-8, 48 hours
[10] = human embryonic lung fibroblast IMR-90, CCK-8, 48 hours
[11] = human hepatic stellate cells LX-2, CCK-8, 48 hours
[12] = cardiac fibroblast RAT-iCell-C002, CCK-8, 48 hours
[13] = human lung fibroblasts HFL1, CCK-8, 48 hours
[14] = human dermal fibroblasts CCC-ESF-1, CCK-8, 48 hours
[15] = Homo sapiens, IMR-90 cells, 48 h, CCK-8
[16] = Homo sapiens, CCC-ESF-1 cells, 48 h, CCK-8

IC50 [1, 9]	IC50 (NF-κB)	IC50 [5]	IC50 ([1]; HT-1080 cells, 48 h, CCK-8)	SMILES	IC50 (BHK-21 cells; [8])	IC50 [2, 10]	IC50 [3, 11]	IC50 [4, 12]	IC50 [6, 13]	IC50 [7, 14]	IC50 (BHK-21 cells; 48 h, CCK-8)	IC50 [2, 15]	IC50 ([3]; LX-2, 48 h, LX-2 cells, CCK-8)	IC50 ([4]; RAT-iCell-C002 cells, CCK-8)	IC50 ([6]; HFL1 cells, 48 h, CCK-8)	IC50 [7, 16]
0.05 to 5 mM	1 to 10 µM	0.1 to 1 µM		O=C1c2c(n(Cc3c(F)c(F)c(F)c(F)c3F)c3ccccc3c2=O)-c2cccn21 [Compound 586a, 4-((Perfluorophenyl)methyl)-9H-pyrrolizino[1,2-b]quinoline-9,10(4H)-dione]	0.05 to 5 mM	0.05 to 5 mM	0.05 to 5 mM	0.05 to 5 mM	0.05 to 5 mM	0.05 to 5 mM						
0.05 to 5 mM	1 to 10 µM	1 to 10 µM		O=C1c2c(nc3ccccc3c2OCc2ccccc2C(F)(F)F)-c2cccn21 [Compound 581b, 9-((2-(trifluoromethyl)benzyl)oxy)-10H-pyrrolizino[1,2-b]quinolin-10-one]	0.05 to 5 mM	0.05 to 5 mM	0.05 to 5 mM	0.05 to 5 mM	0.05 to 5 mM	0.05 to 5 mM						
	0.1 to 1 µM	1 to 10 µM	0.05 to 5 mM	O=C1c2c(n(CCCCN3CCNCC3)c3ccccc3c2=O)-c2cccn21 [Compound 670a, 4-(4-(Piperazin-1-yl)butyl)-9H-pyrrolizino[1,2-b]quinoline-9,10(4H)-dione]							< 0.05 mM	< 0.05 mM	0.05 to 5 mM	0.05 to 5 mM	0.05 to 5 mM	0.05 to 5 mM
0.05 to 5 mM	1 to 10 µM	1 to 10 µM		O=C1c2c(nc3c(O)cccc3c2O)-c2cccn21 [Compound 445b, 5,9-dihydroxy-10H-pyrrolizino[1,2-b]quinolin-10-one]	0.05 to 5 mM	0.05 to 5 mM	0.05 to 5 mM	0.05 to 5 mM	0.05 to 5 mM	0.05 to 5 mM						
0.05 to 5 mM	1 to 10 µM	1 to 10 µM		O=C1c2c([nH]c3cc(C(F)(F)F)ccc3c2=O)-c2cccn21 [Compound 536a, 6-(Trifluoromethyl)-9H-pyrrolizino[1,2-b]quinoline-9,10(4H)-dione]	0.05 to 5 mM	0.05 to 5 mM	0.05 to 5 mM	0.05 to 5 mM	0.05 to 5 mM	0.05 to 5 mM						
0.05 to 5 mM	10 to 50 µM	10 to 50 µM		O=C1c2c(nc3ccccc3c2OCc2c(F)cccc2F)-c2cccn21 [Compound 615b, 9-((2,6-difluorobenzyl)oxy)-10H-pyrrolizino[1,2-b]quinolin-10-one]	0.05 to 5 mM	0.05 to 5 mM	0.05 to 5 mM	0.05 to 5 mM	0.05 to 5 mM	0.05 to 5 mM						
0.05 to 5 mM	1 to 10 µM	1 to 10 µM		Cc1cccc(COc2c3c(nc4ccccc24)-c2cccn2C3=O)c1 [Compound 609b, 9-((3-methylbenzyl)oxy)-10H-pyrrolizino[1,2-b]quinolin-10-one]	0.05 to 5 mM	0.05 to 5 mM	0.05 to 5 mM	0.05 to 5 mM	0.05 to 5 mM	0.05 to 5 mM						
0.05 to 5 mM	1 to 10 µM	1 to 10 µM		O=C1c2c(n(Cc3ccc(Cl)cc3)c3ccccc3c2=O)-c2cccn21 [Compound 589a, 4-(4-Chlorobenzyl)-9H-pyrrolizino[1,2-b]quinoline-9,10(4H)-dione]	< 0.05 mM	0.05 to 5 mM	< 0.05 mM	0.05 to 5 mM	0.05 to 5 mM	0.05 to 5 mM						
0.05 to 5 mM	1 to 10 µM	1 to 10 µM		O=C1c2c(nc3ccccc3c2OCCN2CCOCC2)-c2cccn21 [Compound 662b, 9-(2-morpholinoethoxy)-10H-pyrrolizino[1,2-b]quinolin-10-one]	0.05 to 5 mM	0.05 to 5 mM	0.05 to 5 mM	0.05 to 5 mM	0.05 to 5 mM	0.05 to 5 mM						
0.05 to 5 mM	1 to 10 µM	1 to 10 µM		CCOC(=O)Cn1c2c(c(=O)c3ccccc31)C(=O)n1cccc1-2 [Compound 654a, Ethyl 2-(9,10-dioxo-9H-pyrrolizino[1,2-b]quinolin-4(10H)-yl)acetate]	5 to 20 mM	0.05 to 5 mM	0.05 to 5 mM	0.05 to 5 mM	0.05 to 5 mM	< 0.05 mM						
0.05 to 5 mM	1 to 10 µM	1 to 10 µM		N#Cc1ccccc1Cn1c2c(c(=O)c3ccccc31)C(=O)n1cccc1-2 [Compound 577a, 2-((9,10-Dioxo-9H-pyrrolizino[1,2-b]quinolin-4(10H)-yl)methyl)benzonitrile]	0.05 to 5 mM	0.05 to 5 mM	< 0.05 mM	0.05 to 5 mM	0.05 to 5 mM	0.05 to 5 mM						
	1 to 10 µM	1 to 10 µM	0.05 to 5 mM	Cc1ccc2nc3c(c(O)c2c1)C(=O)n1cccc1-3 [Compound 696b, 9-hydroxy-7-methyl-10H-pyrrolizino[1,2-b]quinolin-10-one]							0.05 to 5 mM	0.05 to 5 mM	0.05 to 5 mM	0.05 to 5 mM	0.05 to 5 mM	0.05 to 5 mM
0.05 to 5 mM	1 to 10 µM	1 to 10 µM		O=C1c2c(nc3cccc(F)c3c2OCc2ccc(F)cc2)-c2cccn21 [Compound 468b, 8-fluoro-9-((4-fluorobenzyl)oxy)-10H-pyrrolizino[1,2-b]quinolin-10-one]	0.05 to 5 mM	0.05 to 5 mM	0.05 to 5 mM	0.05 to 5 mM	0.05 to 5 mM	0.05 to 5 mM						
0.05 to 5 mM	1 to 10 µM	10 to 50 µM		O=C1c2c(nc3ccccc3c2OCc2c(Cl)cccc2Cl)-c2cccn21 [Compound 614b, 9-((2,6-dichlorobenzyl)oxy)-10H-pyrrolizino[1,2-b]quinolin-10-one]	0.05 to 5 mM	0.05 to 5 mM	0.05 to 5 mM	0.05 to 5 mM	0.05 to 5 mM	0.05 to 5 mM						
	1 to 10 µM	1 to 10 µM	0.05 to 5 mM	Cc1cc(C)c2nc3c(c(O)c2c1)C(=O)n1cccc1-3 [Compound 750b, 9-hydroxy-5,7-dimethyl-10H-pyrrolizino[1,2-b]quinolin-10-one]							0.05 to 5 mM	0.05 to 5 mM	0.05 to 5 mM	0.05 to 5 mM	0.05 to 5 mM	0.05 to 5 mM
0.05 to 5 mM	1 to 10 µM	0.1 to 1 µM		O=C1c2c(nc3ccccc3c2OCc2cccc(F)c2)-c2cccn21 [Compound 595b, 9-((3-fluorobenzyl)oxy)-10H-pyrrolizino[1,2-b]quinolin-10-one]	0.05 to 5 mM	0.05 to 5 mM	0.05 to 5 mM	0.05 to 5 mM	0.05 to 5 mM	0.05 to 5 mM						
0.05 to 5 mM	10 to 50 µM	0.1 to 1 µM		O=C1c2c(n(Cc3cccc(Cl)c3)c3cccc(Cl)c3c2=O)-c2cccn21 [Compound 478a, 8-Chloro-4-(3-chlorobenzyl)-9H-pyrrolizino[1,2-b]quinoline-9,10(4H)-dione]	0.05 to 5 mM	0.05 to 5 mM	0.05 to 5 mM	0.05 to 5 mM	0.05 to 5 mM	0.05 to 5 mM						
< 0.05 mM	1 to 10 µM	1 to 10 µM		O=C1c2c(nc3c(C(F)(F)F)cccc3c2O)-c2cccn21 [Compound 448b, 9-hydroxy-5-(trifluoromethyl)-10H-pyrrolizino[1,2-b]quinolin-10-one]	0.05 to 5 mM	0.05 to 5 mM	0.05 to 5 mM	0.05 to 5 mM	0.05 to 5 mM	0.05 to 5 mM						
	1 to 10 µM	1 to 10 µM	0.05 to 5 mM	O=C1c2c(nc3ccccc3c2OC2CC2)-c2cccn21 [Compound 673b, 9-cyclopropoxy-10H-pyrrolizino[1,2-b]quinolin-10-one]							0.05 to 5 mM	0.05 to 5 mM	0.05 to 5 mM	0.05 to 5 mM	0.05 to 5 mM	0.05 to 5 mM
